SMILES strings stand for the structures. Values after ≈ are worked out from the molar mass of the structure shown.

The conditions of this data set: buffer; pH 7.4; 200.0 µM.
For the compound `CN(C(=O)c1coc(=O)c2ccccc12)c1ccccc1Cl`, the kinetic solubility (in general, solubility judged after dilution from a stock solution rather than from solid) was 44.2 µg/mL (≈ 141 µM). Regarding `Cn1c(NC(=O)c2ccc(F)cc2)c(-c2ccccn2)c(=O)c2ccccc21`, the solubility (kinetic) came out at 6.2 µg/mL (≈ 16.6 µM). Against the preceding compound, the solubility kinetic is about 7.1-fold lower. `COc1ccc(Cl)cc1NC(=O)C(C)N1CCc2ccccc21` (stereo not given) registered a solubility (kinetic) of 1.1 µg/mL (≈ 3.33 µM). As for `COc1cccc(CNC(=O)c2ccccc2-c2ccccc2)c1`, the figure is 2.1 µg/mL (≈ 6.62 µM); as for `CC(=O)Oc1cc(C(=O)OCC(=O)N2CCc3ccccc3C2)cc(OC(C)=O)c1OC(C)=O`, greater than 70.4 µg/mL. In the case of `COc1ccc(-c2nc(C#N)c(N3CCCCC3)o2)cc1` it was 0.3 µg/mL (≈ 1.06 µM). In the case of `CCOC(=O)N1CCN(C(=O)COC(=O)c2ccc(N(C)C)cc2)CC1` it was greater than 54.5 µg/mL; in that of `Cc1cccc(Nc2ncnc(N)c2[N+](=O)[O-])n1`, greater than 36.9 µg/mL. For `CCC(=O)Nc1ccc(NC(=S)NC(=O)/C=C/c2ccco2)cc1`, the solubility (kinetic) was determined as 3 µg/mL (≈ 8.74 µM). As for `Cc1ccccc1OCC(=O)OCC(=O)NCc1ccc2c(c1)OCO2`, the figure is 17.3 µg/mL (≈ 48.4 µM). As to `N#Cc1ccc(OCC(=O)Nc2ccc3[nH]c(=O)[nH]c3c2)cc1`, the kinetic solubility was 7.3 µg/mL (≈ 23.7 µM). As for `O=C(CNC(=O)c1cccs1)c1ccc(Br)cc1`, the figure is 17.9 µg/mL (≈ 55.2 µM); as for `COc1ccc(NC(=O)CO/N=C2/CCCc3nonc32)c(OC)c1`, greater than 52 µg/mL; as for `Nc1ccc2c(c1)Oc1ccccc1C=C2`, 12.3 µg/mL (≈ 58.8 µM). As for `Cc1cc([N+](=O)[O-])nn1CC(=O)NCc1ccccc1`, the figure is greater than 41.1 µg/mL; as for `O=C(NNC(=O)c1ccncc1)c1ccccc1`, greater than 36.2 µg/mL. As for `COc1ccc(OCCSc2nc(N)cc(=O)[nH]2)cc1`, the figure is 20.7 µg/mL (≈ 70.6 µM); as for `Cc1ccc(N2C(=O)C(CN3CCCCC3)C2c2ccccc2)cc1` (stereo not given), 27 µg/mL (≈ 80.7 µM). Compound `Cc1nc2cc(C)c(C)cc2s1` returned a kinetic solubility of 0.7 µg/mL (≈ 3.95 µM). In the case of `N=C1c2ccccc2CN1c1ccc(F)c([N+](=O)[O-])c1` it was greater than 40.7 µg/mL; in that of `COc1ccccc1Oc1coc2cc(OCC(N)=O)ccc2c1=O`, 47.8 µg/mL (≈ 140 µM); in that of `O=c1c2ccccc2nc(Cc2ccccc2)n1-c1ccccc1O`, greater than 49.3 µg/mL. As for `COc1ccc(COC(=O)CN2C(=O)NC3(CC(C)CC(C)(C)C3)C2=O)cc1F` (stereo not given), the figure is 5.1 µg/mL (≈ 12.5 µM); as for `O=C(O)C(=O)O.Oc1ccccc1CNCCCN1CCOCC1`, 41.5 µg/mL. As for `CCC(C(=O)OC)n1cnc2c(oc3ccccc32)c1=O` (stereo not given), the figure is greater than 42.9 µg/mL; as for `CCC(CC)C(=O)OCC(=O)Nc1cccc([N+](=O)[O-])c1`, 43 µg/mL (≈ 146 µM); as for `Cc1cccc(OP(N)(=O)Oc2cccc(C)c2)c1`, 40.6 µg/mL (≈ 146 µM). In turn, `COc1ccc(CNC(=O)C(NC(C)=O)C(C)C)cc1OC` (stereo not given) registered a kinetic solubility greater than 46.3 µg/mL. In the case of `Cc1ccc(NS(=O)(=O)c2cccs2)c(C)c1` it was 39.1 µg/mL (≈ 146 µM); in that of `CCOc1ccccc1NC(=O)CCn1ccnc1`, 37 µg/mL (≈ 143 µM). `O=C(Nc1ccccc1)C1CCCN(C(=O)c2ccc(F)cc2)C1` (stereo not given): the solubility (kinetic) was greater than 49 µg/mL. As for `Cc1[nH]c2c(C)cccc2c(=O)c1CN1CCCCCC1`, the figure is 39.5 µg/mL (≈ 139 µM); as for `COc1ccc2c(c1)c(C(C)=O)c(C)n2CCc1ccc(OC)c(OC)c1`, 50.8 µg/mL (≈ 138 µM); as for `O=C(NCCNc1ccc(Cl)cc1[N+](=O)[O-])c1ccccc1F`, 1.5 µg/mL (≈ 4.44 µM). In the case of `Cc1c(-n2cccc2C=O)cccc1[N+](=O)[O-]` it was greater than 34.5 µg/mL. The compound `Cc1ccc(N=C2c3ccccc3C(=O)C2[N+](=O)[O-])cc1C` (stereo not given) came in with a kinetic solubility of 8.8 µg/mL (≈ 29.9 µM). In the case of `CCN(C(=O)COC(=O)Cc1c[nH]c2ccccc12)C1CCS(=O)(=O)C1` (stereo not given) it was greater than 56.8 µg/mL. Consider `O=C(NCc1ccccc1)c1cc2ccc(O)cc2oc1=O`, for which the solubility (kinetic) was found to be 6.3 µg/mL (≈ 21.3 µM). As for `NC(=O)c1ccc2nc(-c3ccccc3)c(-c3ccccc3)nc2c1`, the figure is 0.6 µg/mL (≈ 1.84 µM); as for `CCOc1cc(/C=C(\C#N)C(=O)Nc2ccccn2)ccc1O`, greater than 46.4 µg/mL. As for `COc1ccc(CN(C#N)c2nc(C)cc(C)n2)cc1`, the figure is 38.5 µg/mL (≈ 143 µM); as for `CCOc1ccc(N2CC(C(=O)NC3=NCCS3)CC2=O)cc1` (stereo not given), greater than 50 µg/mL. Compound `CC(=O)c1c(C)n(CCc2ccc(Cl)cc2)c2ccc(O)cc12` gave a kinetic solubility of less than 0.7 µg/mL. As for `O=c1sc(Nc2ccccc2)nc2ccccc12`, the figure is 6.5 µg/mL (≈ 25.6 µM); as for `O=C(NCC(c1ccco1)N1CCCCC1)c1cccs1` (stereo not given), greater than 45.7 µg/mL; as for `Cc1c(C(=O)N(C)Cc2nc3ccccc3c(=O)[nH]2)oc2ccccc12`, 4.6 µg/mL (≈ 13.2 µM).

Take `CCOc1ncccc1C(=O)OCC(=O)NC(=O)NC(C)C`: the kinetic solubility is 44.6 µg/mL (≈ 144 µM). `CC(C)(C)CN1CCN(CC#Cc2ccccc2)CC1CCO` (stereo not given) showed a solubility (kinetic) greater than 47.2 µg/mL. As for `Cc1cccc(NC(=O)C2CCN(S(C)(=O)=O)CC2)c1C`, the figure is greater than 46.6 µg/mL; as for `Cc1ccc(C)c(OCC(=O)Nc2ccccc2N2CCCC2)c1`, 1.3 µg/mL (≈ 4.01 µM); as for `C=CCN1CCN(c2ccncc2S(=O)(=O)N2CCCCC2)CC1`, greater than 52.6 µg/mL. As for `COc1ccc(S(=O)(=O)n2cccc2)c(OC)c1`, the figure is 3.9 µg/mL (≈ 14.6 µM); as for `C=CCN=C1S/C(=C/c2cccc([N+](=O)[O-])c2)C(=O)N1CC=C`, 1.5 µg/mL (≈ 4.55 µM); as for `Cl.Clc1ccc(NCc2ccsc2)cc1`, 2.7 µg/mL.

The compound `Cn1ncc(Br)c1C(=O)N1CCCC1` had a solubility (kinetic) greater than 38.7 µg/mL. In the case of `CC(=O)N/C(=C\c1ccccc1)C(=O)NC(C)C(=O)O` (stereo not given) it was greater than 41.4 µg/mL; in that of `CCOC(=O)c1cc2c(nc1N)CCCC2`, 24.7 µg/mL (≈ 112 µM); in that of `CCN(Cc1ccncc1)C(=O)CCc1ccccc1`, 33.4 µg/mL (≈ 124 µM).

Regarding `COc1ccccc1CNC(=O)COC(=O)C1CC1`, the solubility (kinetic) is greater than 39.5 µg/mL. Compound `COc1ccc(C2C(C(C)=O)=C(O)C(=O)N2c2ccc(C)cc2)cc1` (stereo not given) gave a solubility (kinetic) greater than 50.6 µg/mL. As for `Cc1cccnc1NC(=O)CNC(=O)c1cccs1`, the figure is greater than 41.3 µg/mL. In the case of `COC(=O)CCC(=O)NNC(=O)c1ccc([N+](=O)[O-])cc1` it was greater than 44.3 µg/mL. In the case of `CSc1ccc(S(=O)(=O)N2CCC(C(=O)NC3CC3)CC2)cc1` it was 36 µg/mL (≈ 102 µM); in that of `Cc1onc(-c2c(Cl)cccc2Cl)c1C(=O)N=C(N)N1CCCC1`, 12 µg/mL (≈ 32.7 µM); in that of `O=C(NCCc1c[nH]c2ccccc12)c1ccccc1`, 34.7 µg/mL (≈ 131 µM). The compound `O=C(NC(=S)Nc1ccccn1)c1cccc([N+](=O)[O-])c1` showed a kinetic solubility of 6.2 µg/mL (≈ 20.5 µM).

Turning to `CCC(CC)C(=O)N1CCN(c2ccccc2)CC1`, the kinetic solubility was greater than 39.1 µg/mL. Turning to `Cc1ccc(CONC(=O)c2ccc(C)cc2)cc1`, the kinetic solubility was found to be 20.2 µg/mL (≈ 79.1 µM). As for `CC(=O)N1CCN(c2nc(N)c(C#N)c(CC#N)c2C#N)CC1`, the figure is greater than 46.4 µg/mL. As for `O=C1Cc2ccccc2C(c2ccc(Cl)cc2)N1` (stereo not given), the figure is 30.4 µg/mL (≈ 118 µM). `CCN1CCN(CCC(=O)Nc2ccccc2)CC1` registered a solubility (kinetic) greater than 39.2 µg/mL. In the case of `CC(=O)NC(Cc1c[nH]c2ccccc12)C(=O)NCc1ccco1` (stereo not given) it was greater than 48.8 µg/mL. As for `CC(C)CC(=O)N1CCN(Cc2ccccc2Cl)CC1`, the figure is 30.7 µg/mL (≈ 104 µM). In the case of `C=CCn1c(C)cc(C(=O)COc2ccc(N(C)S(=O)(=O)c3ccc(NC(C)=O)cc3)cc2)c1C` it was 9.3 µg/mL (≈ 18.8 µM).

For the compound `O=C(CCNc1ccc(Cc2ccncc2)cc1)c1ccc([N+](=O)[O-])cc1`, the solubility (kinetic) was 11.6 µg/mL (≈ 32.1 µM). In the case of `O=C(Nc1cccnc1)Nc1cccc([N+](=O)[O-])c1` it was 10 µg/mL (≈ 38.7 µM). In the case of `O=C(/C=C/c1ccccc1)NCCc1c[nH]c2ccccc12` it was 19.7 µg/mL (≈ 67.8 µM); in that of `CCCNC(=O)Cn1sc2nc(C)cc(C)c2c1=O`, greater than 41.9 µg/mL.

For `Cc1ccccc1NC(=O)CSc1nc2ccccc2c(=O)n1C`, the kinetic solubility turned out to be 3 µg/mL (≈ 8.84 µM). As for `CC(OC(=O)CCCc1nc2ccccc2s1)C(=O)NC(N)=O` (stereo not given), the figure is greater than 50.3 µg/mL; as for `Cc1ccc(S(=O)(=O)NC2CC2)s1`, greater than 32.6 µg/mL; as for `COc1ccc(OCC(=O)OC(C)CN2CCCCC2)cc1` (stereo not given), greater than 46.1 µg/mL. As to `CCc1cc(C(=O)c2ccc(OC)cc2)c(N)s1`, the kinetic solubility came out at 20.9 µg/mL (≈ 80 µM). In the case of `O=C(CSC1=NCCS1)c1ccc(Cl)cc1` it was 31.2 µg/mL (≈ 115 µM); in that of `O=C(NCCCSc1ccccc1)c1cc(Cl)ccc1O`, 0.9 µg/mL (≈ 2.8 µM); in that of `CC1CCCN(C(=O)COC(=O)COc2ccc(Cl)cc2)C1` (stereo not given), 20.2 µg/mL (≈ 62 µM).

Turning to `N#Cc1nc(-c2cccc3ccccc23)oc1NCC1CCCO1` (stereo not given), the kinetic solubility worked out at 3.3 µg/mL (≈ 10.3 µM). In turn, `NC(=O)C1CCN(C(=O)CCC(=O)c2cccs2)CC1` had a solubility (kinetic) greater than 44.2 µg/mL. As for `CCOC(=O)c1sc(=NC(=O)c2ccccc2)n(C)c1C`, the figure is 0.4 µg/mL (≈ 1.31 µM). As for `COc1cccc(OC)c1C(=O)OCC(=O)NCC(C)C`, the figure is greater than 44.3 µg/mL; as for `CC(C)(C)C(O)CN1CCCC1.Cl` (stereo not given), greater than 31.2 µg/mL. In the case of `O=C(Nc1ccc(N2CCOCC2)cc1)c1nc2ccccc2s1` it was less than 0.2 µg/mL; in that of `CC(C)(c1ccccc1)c1ccc(OCCN2CCCC2)cc1`, 29.2 µg/mL (≈ 94.4 µM). Consider `CN(c1ccccc1)S(=O)(=O)c1ccc(C(=O)NCc2ccc(F)cc2)cc1`, for which the kinetic solubility amounted to 8.1 µg/mL (≈ 20.3 µM). In the case of `O=C(O)C1C2C=CC(C2)C1C(=O)NCc1ccc(Cl)cc1Cl` (stereo not given) it was 45.3 µg/mL (≈ 133 µM); in that of `COCCNCC(=O)N1CCCCCC1.O=C(O)C(=O)O`, greater than 45.7 µg/mL. In the case of `O=C(O)c1cccc2c(/C=N/Nc3ccccn3)c[nH]c12` it was greater than 42 µg/mL; in that of `COC(=O)CSc1nc(Cc2ccccc2)nc2ccccc12`, 10.7 µg/mL (≈ 33 µM); in that of `COc1cc(OC)c(OC)cc1CN1CCC(O)CC1.Cl`, greater than 47.7 µg/mL. In the case of `Cc1ccc2nc(C)c3c(c2c1)N(c1ccccc1)CC3` it was greater than 41.2 µg/mL; in that of `N#CCSc1nc2ccccc2c(=O)n1CC1CCCC1`, 0.8 µg/mL (≈ 2.67 µM). `CCC(CO)NCc1sccc1C` (stereo not given) came in with a solubility (kinetic) of 26.6 µg/mL (≈ 133 µM). In the case of `CC1CCCCC1NC1CCN(C)CC1` (stereo not given) it was greater than 31.6 µg/mL; in that of `C=CCc1ccccc1OCC(O)CN1CCOCC1` (stereo not given), greater than 41.6 µg/mL; in that of `CN(C)c1nc(F)c(F)c(S(=O)(=O)c2ccccc2)c1F`, 12.4 µg/mL (≈ 39.2 µM).

The values above are taken from PubChem BioAssay AID1996.
